# According to patent US20030148267A1, “Screening assay for hepatitis C virus antiviral agents” (priority 2001, published 2003):
# Where “and” joins values, the source holds several entries; their conditions need not be identical. Equal entries are not always repeated. Entries after “also recorded” stand apart in the source; their conditions may differ.
# What was measured:
# HCV (−) RNA synthesis = test: HCV (−) strand RNA synthesis in binary HCV expression system (RNase protection assay, strand-specific RT-PCR); assay type: cell-based, hepatitis C virus (genotype 1a, strain H77); conditions: for HCV (−) strand results with other timing of the drug: drug given 0 and 12 hours before vTF7-3 infection instead of 20 hours; for HCV replicative strand synthesis: the two RBV doses (50 and 400)
# HCV RNA = HCV RNA quasispecies analysis (mutation rate) in transfected/infected CV-1 cells; assay type: cell-based, hepatitis C virus (genotype 1a, strain H77); set-up: nucleotide substitutions / substitutions / error generation / dN/dS (nonsynonymous/synonymous mutation): unit of the concentration uncertain
# Experimental: Twenty-four hours post-vvT7, cells were lysed and RNA was extracted by TRIzol (GIBCO/BRL), DNase I-treated (Roche Molecular Biochemicals), and phenol-chloroform extracted.
# RT-PCR was performed for the 5′UTR, core, E2-HVR1, NS5A and NS5B regions using region-specific primers: […]
# RT was carried out on extracted RNA using AMV reverse transcriptase (Perkin-Elmer) using standard conditions. 25 cycles of PCR were carried out using 25 pmol each of the relevant sense and antisense primers, 0.5 mM of each dNTP, 1.5 mM MgCl2, and 0.5 units of Taq polymerase (Perkin-Elmer).
# Amplicons were cloned using the TOPO-PCR system (Invitrogen). Between 11 and 20 individual transformants corresponding to each region were sequenced bidirectionally by the ABI Prism automated sequencer, using primers flanking the insert. Synonymous and non-synonymous substitutions at variance from the parent pT7flHCV-Rz and pT7HCVDBglII-Rz sequences were determined and error generation rates calculated as nucleotide substitutions/total nucleotides sequenced. Sequences were aligned, and quasispecies diversity rates were compared between groups by using the statistical package SPSS 9.0.
# HSV-1 = HSV-1 plaque formation in CV-1 cells; assay type: cell-based; conditions: the two RBV doses (50 and 400); listed as RBV
# [1] = RBV 50, E2 (HVR-1), listed as REV
compound,measurement,setting,value
NC12CC3CC(CC(C3)C1)C2 [amantadine],HCV (−) strand synthesis,HCV (−) RNA synthesis; doses 1-100 mg/well,no activity; also recorded: Neither ribavirin nor amantadine demonstrated direct activity
same,HCV (−) strand results with other timing of the drug,HCV (−) RNA synthesis,unchanged
NC(=O)c1ncn([C@@H]2O[C@H](CO)[C@@H](O)[C@H]2O)n1 [ribavirin],additional RNA inhibitory effects,HCV (−) RNA synthesis; RBV added to IFN,not seen
same,HCV (−) RNA synthesis,HCV (−) RNA synthesis; doses of 10-200 mg/well,No inhibitory effect; also recorded: Neither ribavirin nor amantadine demonstrated direct activity
same,HCV (−) strand results with other timing of the drug,HCV (−) RNA synthesis,unchanged
same,HCV replicative strand synthesis,HCV (−) RNA synthesis,no effect
same,HCV replicative strand synthesis,HCV (−) RNA synthesis; listed as RBV,no direct decrease
same,error generation throughout the viral genome compared with the lower dose,"HCV RNA; 400 mM vs 50 mM, differences not statistically significant",to a lesser degree than that observed at the lower dose
same,nucleotide substitutions,"HCV RNA; 50 (unit uncertain), HVR-1 region",15
same,substitutions,"HCV RNA; 50 (unit uncertain), core region",12
same,error generation,"HCV RNA; 400 (unit uncertain), across all regions",0.6-1.2 ×10^−3
same,Total Mutations (all regions),HCV RNA; RBV 50,54
same,ERROR GEN RATE,"HCV RNA; RBV 50, 5′UTR",0.7 X 10^−3
same,MUTANT CLONES (%),"HCV RNA; RBV 50, 5′UTR",3(20%)
same,NONSYN/SYN SUBS,"HCV RNA; RBV 50, 5′UTR",0/3
same,Transition Mutations T to C,"HCV RNA; RBV 50, 5′UTR",2
same,NONSYN/SYN SUBS,"HCV RNA; RBV 50, CORE",8/4
same,Transition Mutations C to T,"HCV RNA; RBV 50, CORE",2
same,Transition Mutations T to C,"HCV RNA; RBV 50, CORE",2
same,insertions (resulting in stop codons),"HCV RNA; RBV 50, CORE",2 insertions
same,ERROR GEN RATE,"HCV RNA; RBV 50, CORE, listed as RBV",1.9^1 X 10^−3
same,ERROR GEN RATE,"HCV RNA; RBV 50, CORE, listed as REV",1.9^2 X 10^−3
same,MUTANT CLONES (%),"HCV RNA; RBV 50, CORE, listed as REV",7(50%)
same,nt-insertions,"HCV RNA; RBV 50, CORE, listed as REV",4 nt-insertions
same,NONSYN/SYN SUBS,"HCV RNA; RBV 50, E2",11/4
same,Transition Mutations A to G,"HCV RNA; RBV 50, E2",4
same,Transition Mutations C to T,"HCV RNA; RBV 50, E2",1
same,Transition Mutations G to A,"HCV RNA; RBV 50, E2",1
same,Transition Mutations T to C,"HCV RNA; RBV 50, E2",6
same,insertions (resulting in stop codons),"HCV RNA; RBV 50, E2",2 insertions
same,ERROR GEN RATE,"HCV RNA; RBV 50, E2 (HVR-1), listed as RBV",1.7 X 10^−3 and 1.5^2 X 10^−3
same,ERROR GEN RATE,HCV RNA; [1],1.5 X 10^−3
same,MUTANT CLONES (%),HCV RNA; [1],12(60%)
same,nt-deletion,HCV RNA; [1],1 nt-deletion
same,nt-insertion,HCV RNA; [1],1 nt-insertion
same,ERROR GEN RATE,"HCV RNA; RBV 50, NS5A",2.5^3 X 10^−3
same,MUTANT CLONES (%),"HCV RNA; RBV 50, NS5A",5(20%)
same,NONSYN/SYN SUBS,"HCV RNA; RBV 50, NS5A",12/0
same,Transition Mutations A to G,"HCV RNA; RBV 50, NS5A",1
same,Transition Mutations C to T,"HCV RNA; RBV 50, NS5A",1
same,ERROR GEN RATE,"HCV RNA; RBV 50, NS5B",1.7 X 10^−3
same,Transition Mutations A to G,"HCV RNA; RBV 50, NS5B",2
same,Transition Mutations C to T,"HCV RNA; RBV 50, NS5B",1
same,Transition Mutations G to A,"HCV RNA; RBV 50, NS5B",4
same,MUTANT CLONES (%),"HCV RNA; RBV 50, NS5B, listed as RBV",7(39%)
same,NONSYN/SYN SUBS,"HCV RNA; RBV 50, NS5B, listed as RBV",9/3
same,NONSYN/SYN SUBS,"HCV RNA; RBV 50, NS5B, listed as REV",9/4
same,MUTANT CLONES (%),"HCV RNA; RBV 50, all regions",29(33%)
same,Non-Syn/Syn Substitutions,"HCV RNA; RBV 50, all regions",40/14
same,dose-responsiveness of mutations,HCV RNA; RBV 50 vs 400,not a demonstrable dose-responsiveness
same,Total Mutations (all regions),HCV RNA; RBV 400,31
same,ERROR GEN RATE,"HCV RNA; RBV 400, 5′UTR",0.7 X 10^−3
same,MUTANT CLONES (%),"HCV RNA; RBV 400, 5′UTR",3(21%)
same,NONSYN/SYN SUBS,"HCV RNA; RBV 400, 5′UTR",0/3
same,Transition Mutations A to G,"HCV RNA; RBV 400, 5′UTR",1
same,Transition Mutations G to A,"HCV RNA; RBV 400, 5′UTR",1
same,MUTANT CLONES (%),"HCV RNA; RBV 400, CORE",4(20%)
same,NONSYN/SYN SUBS,"HCV RNA; RBV 400, CORE",5/1
same,Transition Mutations A to G,"HCV RNA; RBV 400, CORE",1
same,Transition Mutations C to T,"HCV RNA; RBV 400, CORE",2
same,Transition Mutations G to A,"HCV RNA; RBV 400, CORE",1
same,Transition Mutations T to C,"HCV RNA; RBV 400, CORE",1
same,ERROR GEN RATE,"HCV RNA; RBV 400, CORE, listed as RBV",0.6^4 X 10^−3 and 0.6 X 10^−3
same,MUTANT CLONES (%),"HCV RNA; RBV 400, E2",7(35%)
same,Transition Mutations A to G,"HCV RNA; RBV 400, E2",3
same,Transition Mutations C to T,"HCV RNA; RBV 400, E2",2
same,Transition Mutations G to A,"HCV RNA; RBV 400, E2",1
same,Transition Mutations T to C,"HCV RNA; RBV 400, E2",1
same,insertions,"HCV RNA; RBV 400, E2",2 insertions
same,ERROR GEN RATE,"HCV RNA; RBV 400, E2, listed as RBV",1.2 X 10^−3 and 1.2^4 X 10^−3
same,NONSYN/SYN SUBS,"HCV RNA; RBV 400, E2, listed as RBV",9/4 and 7/5
same,ERROR GEN RATE,"HCV RNA; RBV 400, NS5A",0.9 X 10^−3
same,MUTANT CLONES (%),"HCV RNA; RBV 400, NS5A",2(14%)
same,NONSYN/SYN SUBS,"HCV RNA; RBV 400, NS5A",3/0
same,ERROR GEN RATE,"HCV RNA; RBV 400, NS5B",1 X 10^−3
same,MUTANT CLONES (%),"HCV RNA; RBV 400, NS5B",6(35%)
same,NONSYN/SYN SUBS,"HCV RNA; RBV 400, NS5B",5/2
same,Transition Mutations A to G,"HCV RNA; RBV 400, NS5B",2
same,Transition Mutations G to A,"HCV RNA; RBV 400, NS5B",1
same,Transition Mutations T to C,"HCV RNA; RBV 400, NS5B",2
same,MUTANT CLONES (%),"HCV RNA; RBV 400, all regions",25(30%)
same,Non-Syn/Syn Substitutions,"HCV RNA; RBV 400, all regions",20/11
same,induction of mutations / error generation in the HCV genome,"HCV RNA; RBV, all regions tested, listed as RBV",induces mutations across all regions; also recorded: increases error generation
same,dN/dS (nonsynonymous/synonymous mutation),"HCV RNA; ribavirin at 50 (unit uncertain), all regions tested",2.85
same,HSV-1 plaque formation in CV-1 cells,HSV-1,activity against HSV-1
interferon-α-2b,HCV (−) RNA synthesis,"HCV (−) RNA synthesis; doses from 2000 to 15,000 units/well, CV-1 cells",dose-dependent inhibition
same,Total Mutations (all regions),"HCV RNA; IFN 100,000",30
same,MUTANT CLONES (%),"HCV RNA; IFN 100,000, all regions",19(30%)
same,Non-Syn/Syn Substitutions,"HCV RNA; IFN 100,000, all regions",20/10
same,5′ UTR sequences,"HCV RNA; IFN 100,000 U",remained invariant
same,ERROR GEN RATE,"HCV RNA; IFN 100,000U, 5′UTR",0 X 10^−3
same,MUTANT CLONES (%),"HCV RNA; IFN 100,000U, 5′UTR",0
same,NONSYN/SYN SUBS,"HCV RNA; IFN 100,000U, 5′UTR",0
same,MUTANT CLONES (%),"HCV RNA; IFN 100,000U, CORE",4(36%)
same,NONSYN/SYN SUBS,"HCV RNA; IFN 100,000U, CORE",2/2
same,Transition Mutations T to C,"HCV RNA; IFN 100,000U, CORE",2
same,ERROR GEN RATE,"HCV RNA; IFN 100,000U, CORE, listed as IFN",0.8^5 X 10^−3 and 0.8 X 10^−3
same,ERROR GEN RATE,"HCV RNA; IFN 100,000U, E2",2.8^6 X 10^−3
same,MUTANT CLONES (%),"HCV RNA; IFN 100,000U, E2",10(83%)
same,NONSYN/SYN SUBS,"HCV RNA; IFN 100,000U, E2",10/6
same,Transition Mutations A to G,"HCV RNA; IFN 100,000U, E2",4
same,Transition Mutations C to T,"HCV RNA; IFN 100,000U, E2",2
same,Transition Mutations T to C,"HCV RNA; IFN 100,000U, E2",9
same,stop codon,"HCV RNA; IFN 100,000U, E2",1
same,ERROR GEN RATE,"HCV RNA; IFN 100,000U, NS5A",1.4 X 10^−3
same,MUTANT CLONES (%),"HCV RNA; IFN 100,000U, NS5A",3(16%)
same,NONSYN/SYN SUBS,"HCV RNA; IFN 100,000U, NS5A",5/1
same,Transition Mutations A to G,"HCV RNA; IFN 100,000U, NS5A",1
same,Transition Mutations C to A,"HCV RNA; IFN 100,000U, NS5A",2
same,Transition Mutations T to C,"HCV RNA; IFN 100,000U, NS5A",1
same,ERROR GEN RATE,"HCV RNA; IFN 100,000U, NS5B",0.9 X 10^−3
same,MUTANT CLONES (%),"HCV RNA; IFN 100,000U, NS5B",2(18%)
same,NONSYN/SYN SUBS,"HCV RNA; IFN 100,000U, NS5B",3/1
same,dN/dS (nonsynonymous/synonymous mutation),"HCV RNA; IFN-α, all regions tested",2.0
same,HCV core protein synthesis,HCV core protein,dose-responsive inhibition
